Experimental data reported in ChEMBL document CHEMBL1153619, “The role of phenolic hydroxy groups in the free radical scavenging activity of betalains” (J Nat Prod, 2009).

Experiments:
[1] = Antioxidant activity assessed as Trolox molar equivalence for reduction of Fe(III) at pH 3.6 by ferric reducing antioxidant power assay; format: functional
[2] = ABTS radical scavenging activity assessed as Trolox equivalent antioxidant capacity index at pH 7 by spectrophotometry; format: physicochemical

Compound: O=C(O)C1=C/C(=C\C=N/CCc2ccc(O)c(O)c2)C[C@@H](C(=O)O)N1
- Activity [1]: 3.3

Compound: O=C(O)C1=C/C(=C\C=N/CCc2ccc(O)cc2)C[C@@H](C(=O)O)N1
- Activity [2]: 4
- Activity [1]: 1.1

Compound: CCC/N=C\C=C1/C=C(C(=O)O)N[C@H](C(=O)O)C1
- Activity [1]: 1.1

Compound: O=C(O)C1=C/C(=C\C=N/CCc2cccc(O)c2)C[C@@H](C(=O)O)N1
- Activity [2]: 4.1
- Activity [1]: 2.7

Compound: O=C(O[C@@H]1Cc2c(O)cc(O)cc2O[C@@H]1c1cc(O)c(O)c(O)c1)c1cc(O)c(O)c(O)c1 [EPIGALOCATECHIN GALLATE]
- Activity [2]: 4.8

Compound: O=C(O)C1=C/C(=C\C=N/CCc2ccccc2)C[C@@H](C(=O)O)N1
- Activity [2]: 2.3
- Activity [1]: 1.1

Compound: Oc1ccc(/C=C/c2cc(O)cc(O)c2)cc1 [RESVERATROL]
- Activity [2]: 2.7
